Measurements published in US12655116B2, “Substituted isophthalic acid diamides” (Bayer Aktiengesellschaft, priority 2020, dated 2026).

Key:
ALOMY [1] = experiment: Pre-emergence herbicidal action against ALOMY; format: in vivo, Alopecurus myosuroides; conditions: 80 g/ha, pre-emergence, scored visually after 3 weeks vs untreated controls (100% = plants have died, 0% = like control plants)
How it was run: (§1)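 Visual rating at 3 weeks vs untreated pots; 0–100% scale, 100% = plants died. Treatment: aqueous WP/EC spray onto covering soil, 600–800 l/ha, 0.2% wetter, seeds in sandy loam.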

SETVI [2] = experiment: Pre-emergence herbicidal action against SETVI; format: in vivo, Setaria viridis
How it was run: as §1

PHBPU [3] = experiment: Pre-emergence herbicidal action against PHBPU; format: in vivo, Pharbitis purpurea; conditions: dosage 80 g/ha
How it was run: as §1

ABUTH [4] = experiment: Pre-emergence herbicidal action against ABUTH; format: in vivo, Abutilon theophrasti; conditions: for Pre-emergence action against ABUTH (herbicidal activity): 80 g/ha, scored visually after 3 weeks vs untreated controls (100% = plants have died, 0% = like control plants); for Pre-emergence action against ABUTH (herbicidal activity in percent): dosage 20 g/ha, scored visually after 3 weeks vs untreated controls, 100% = plants have died, 0% = like control plants
How it was run: as §1

VIOTR [5] = experiment: Post-emergence herbicidal action against VIOTR; format: in vivo, Viola tricolor
How it was run: (§2)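 Weeds in sandy loam soil received a post-emergence spray at the one-leaf stage. Compounds were applied as WP or EC in water, 600 to 800 l/ha, with 0.2% wetting agent. Activity in % was judged visually after roughly 3 weeks against untreated plants.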

ALOMY [6] = experiment: Post-emergence herbicidal action against ALOMY; format: in vivo, Alopecurus myosuroides; conditions: dosage 20 g/ha, visual assessment about 3 weeks after treatment vs untreated controls
How it was run: as §2

ECHCG [7] = experiment: Pre-emergence herbicidal action against ECHCG; format: in vivo, Echinochloa crus-galli; conditions: 80 g/ha
How it was run: as §1

DIGSA [8] = experiment: Pre-emergence herbicidal action against DIGSA; format: in vivo, Digitaria sanguinalis
How it was run: as §1

VIOTR [9] = experiment: Pre-emergence herbicidal action against VIOTR; format: in vivo, Viola tricolor
How it was run: as §1

AVEFA [10] = experiment: Pre-emergence herbicidal action against AVEFA; format: in vivo, Avena fatua; conditions: 80 g/ha, pre-emergence
How it was run: as §1

MATIN [11] = experiment: Pre-emergence herbicidal action against MATIN; format: in vivo, Matricaria inodora
How it was run: as §1

AVEFA [12] = experiment: Post-emergence herbicidal action against AVEFA; format: in vivo, Avena fatua; conditions: 20 g/ha, visual assessment about 3 weeks after treatment, 100% = plants have died, 0% = like control plants
How it was run: as §2

VERPE [13] = experiment: Post-emergence herbicidal action against VERPE; format: in vivo, Veronica persica; conditions: 20 g/ha
How it was run: as §2

HORMU [14] = experiment: Post-emergence herbicidal action against HORMU; format: in vivo, Hordeum murinum; conditions: dosage 20 g/ha
How it was run: as §2

ECHCG [15] = experiment: Post-emergence herbicidal action against ECHCG; format: in vivo, Echinochloa crus-galli
How it was run: as §2

HORMU [16] = experiment: Pre-emergence herbicidal action against HORMU; format: in vivo, Hordeum murinum; conditions: 80 g/ha, pre-emergence
How it was run: as §1

ABUTH [17] = experiment: Post-emergence herbicidal action against ABUTH; format: in vivo, Abutilon theophrasti; conditions: visual assessment about 3 weeks after treatment vs untreated controls
How it was run: as §2

STEME [18] = experiment: Post-emergence herbicidal action against STEME; format: in vivo, Stellaria media
How it was run: as §2

LOLRI = experiment: Pre-emergence herbicidal action against LOLRI; format: in vivo, Lolium rigidum; conditions: 80 g/ha
How it was run: as §1

DIGSA [19] = experiment: Post-emergence herbicidal action against DIGSA; format: in vivo, Digitaria sanguinalis; conditions: for Post-emergence action against DIGSA in %: 5 g/ha; for Post-emergence action against DIGSA: 20 g/ha
How it was run: as §2

PHBPU [20] = experiment: Post-emergence herbicidal action against PHBPU; format: in vivo, Pharbitis purpurea
How it was run: as §2

AMARE [21] = experiment: Pre-emergence herbicidal action against AMARE; format: in vivo, Amaranthus retroflexus
How it was run: as §1

VERPE [22] = experiment: Pre-emergence herbicidal action against VERPE; format: in vivo, Veronica persica; conditions: dosage 80 g/ha
How it was run: as §1

SETVI [23] = experiment: Post-emergence herbicidal action against SETVI; format: in vivo, Setaria viridis
How it was run: as §2

POLCO = experiment: Pre-emergence herbicidal action against POLCO; format: in vivo, Polygonum convolvulus
How it was run: as §1

MATIN [24] = experiment: Post-emergence herbicidal action against MATIN; format: in vivo, Matricaria inodora
How it was run: as §2

STEME [25] = experiment: Pre-emergence herbicidal action against STEME; format: in vivo, Stellaria media
How it was run: as §1

AMARE [26] = experiment: Post-emergence herbicidal action against AMARE; format: in vivo, Amaranthus retroflexus; conditions: 20 g/ha, visual assessment about 3 weeks after treatment, 100% = plants have died, 0% = like control plants
How it was run: as §2

[27] = 20 g/ha, scored visually after 3 weeks vs untreated controls, 100% = plants have died, 0% = like control plants
[28] = 80 g/ha, scored visually after 3 weeks vs untreated controls (100% = plants have died, 0% = like control plants)

CCn1nnnc1NC(=O)c1ccc(C(F)(F)F)c(C(=O)NC)c1C [Example 2-25]
80%: Pre-emergence action against PHBPU in % (PHBPU [3]) | Post-emergence action against VIOTR in % (VIOTR [5]; 5 g/ha) | Post-emergence action against HORMU in % (HORMU [14]) | Post-emergence action against ECHCG in % (ECHCG [15]; dosage 20 g/ha) | Pre-emergence action against LOLRI in % (LOLRI) | Post-emergence action against DIGSA in % (DIGSA [19]) | Post-emergence action against PHBPU in % (PHBPU [20]; dosage 5 g/ha) | Post-emergence action against SETVI in % (SETVI [23]; dosage 20 g/ha)
90%: Pre-emergence action against ALOMY (herbicidal activity) (ALOMY [1]) | Post-emergence action against VIOTR in % (VIOTR [5]; 20 g/ha) | Post-emergence action against ALOMY in % (ALOMY [6]) | Post-emergence action against VERPE in % (VERPE [13]) | Pre-emergence action against HORMU in % (HORMU [16]) | Post-emergence action against STEME in % (STEME [18]; dosage 5 g/ha) | Post-emergence action against DIGSA (DIGSA [19]) | Post-emergence action against PHBPU in % (PHBPU [20]; dosage 20 g/ha) | Post-emergence action against MATIN in % (MATIN [24]; dosage 5 g/ha) | Pre-emergence action against STEME in % (STEME [25]; dosage 20 g/ha)
100%: Pre-emergence action against SETVI in % (SETVI [2]; dosage 20 g/ha) | Pre-emergence action against SETVI in % (SETVI [2]; dosage 80 g/ha) | Pre-emergence action against ABUTH (herbicidal activity) (ABUTH [4]) | Pre-emergence action against ABUTH (herbicidal activity in percent) (ABUTH [4]) | Pre-emergence action against ECHCG in % (ECHCG [7]) | Pre-emergence action against DIGSA in % (DIGSA [8]; dosage 20 g/ha) | Pre-emergence action against DIGSA in % (DIGSA [8]; dosage 80 g/ha) | Pre-emergence action against VIOTR in % (VIOTR [9]; dosage 80 g/ha) | Pre-emergence action against AVEFA in % (AVEFA [10]) | Pre-emergence action against MATIN in % (MATIN [11]; dosage 20 g/ha) | Pre-emergence action against MATIN in % (MATIN [11]; dosage 80 g/ha) | Post-emergence action at 20 g/ha against AVEFA in % (AVEFA [12]) | Post-emergence action against ABUTH in % (ABUTH [17]; dosage 5 g/ha) | Post-emergence action against ABUTH in % (ABUTH [17]; dosage 20 g/ha) | Post-emergence action against STEME in % (STEME [18]; 20 g/ha) | Pre-emergence action against AMARE in % (AMARE [21]; [27]) | Pre-emergence action against AMARE in % (AMARE [21]; [28]) | Pre-emergence action against VERPE in % (VERPE [22]) | Pre-emergence action against POLCO in % (POLCO; dosage 20 g/ha) | Pre-emergence action against POLCO in % (POLCO; dosage 80 g/ha) | Post-emergence action against MATIN in % (MATIN [24]; dosage 20 g/ha) | Pre-emergence action against STEME in % (STEME [25]; dosage 80 g/ha)

CCNC(=O)c1c(C(F)F)ccc(C(=O)Nc2nnnn2CC)c1SC [Example 2-88]
80%: Post-emergence action against VIOTR in % (VIOTR [5]; 5 g/ha) | Post-emergence action against ALOMY in % (ALOMY [6]) | Post-emergence action at 20 g/ha against AVEFA in % (AVEFA [12]) | Post-emergence action against VERPE in % (VERPE [13]) | Post-emergence action against HORMU in % (HORMU [14]) | Post-emergence action against ECHCG in % (ECHCG [15]; dosage 5 g/ha) | Post-emergence action against ECHCG in % (ECHCG [15]; dosage 20 g/ha) | Pre-emergence action against HORMU in % (HORMU [16]) | Pre-emergence action against LOLRI in % (LOLRI) | Post-emergence action against PHBPU in % (PHBPU [20]; dosage 5 g/ha) | Post-emergence action against MATIN in % (MATIN [24]; dosage 20 g/ha)
100%: Pre-emergence action against SETVI in % (SETVI [2]; dosage 80 g/ha) | Pre-emergence action against ABUTH (herbicidal activity) (ABUTH [4]) | Pre-emergence action against ABUTH (herbicidal activity in percent) (ABUTH [4]) | Pre-emergence action against ECHCG in % (ECHCG [7]) | Pre-emergence action against DIGSA in % (DIGSA [8]; dosage 20 g/ha) | Pre-emergence action against DIGSA in % (DIGSA [8]; dosage 80 g/ha) | Pre-emergence action against VIOTR in % (VIOTR [9]; dosage 20 g/ha) | Pre-emergence action against VIOTR in % (VIOTR [9]; dosage 80 g/ha) | Pre-emergence action against MATIN in % (MATIN [11]; dosage 20 g/ha) | Pre-emergence action against MATIN in % (MATIN [11]; dosage 80 g/ha) | Post-emergence action against STEME in % (STEME [18]; 20 g/ha) | Pre-emergence action against AMARE in % (AMARE [21]; [27]) | Pre-emergence action against AMARE in % (AMARE [21]; [28]) | Pre-emergence action against VERPE in % (VERPE [22]) | Post-emergence action against SETVI in % (SETVI [23]; dosage 20 g/ha) | Pre-emergence action against STEME in % (STEME [25]; dosage 20 g/ha) | Pre-emergence action against STEME in % (STEME [25]; dosage 80 g/ha)
90%: Pre-emergence action against ALOMY (herbicidal activity) (ALOMY [1]) | Pre-emergence action against PHBPU in % (PHBPU [3]) | Post-emergence action against VIOTR in % (VIOTR [5]; 20 g/ha) | Pre-emergence action against AVEFA in % (AVEFA [10]) | Post-emergence action at 20 g/ha against AMARE in % (AMARE [26]) | Post-emergence action against ABUTH in % (ABUTH [17]; dosage 5 g/ha) | Post-emergence action against ABUTH in % (ABUTH [17]; dosage 20 g/ha) | Post-emergence action against STEME in % (STEME [18]; dosage 5 g/ha) | Post-emergence action against DIGSA in % (DIGSA [19]) | Post-emergence action against DIGSA (DIGSA [19]) | Post-emergence action against PHBPU in % (PHBPU [20]; dosage 20 g/ha) | Post-emergence action against SETVI in % (SETVI [23]; dosage 5 g/ha) | Pre-emergence action against POLCO in % (POLCO; dosage 80 g/ha)
